Each structure is given as a SMILES string.

Broadly, the IC50 is the concentration at which inhibition is half-maximal. A higher IC50 goes with lower potency. Usually Kd stands for a measure of binding affinity in units of concentration. A low value points to a tighter complex.

One assay addresses CDK16 (human) (UniProt Q00536). The experiment in a line: KINOMEscan competition binding. Particulars: compound 10.0 µM.
Another assay deals with HIPK1 (human) (UniProt Q86Z02). The experiment in a line: KINOMEscan competition binding. The note with it: compound 10.0 µM.
HIPK1 (human), sequence (Q86Z02 whole entry, looked up): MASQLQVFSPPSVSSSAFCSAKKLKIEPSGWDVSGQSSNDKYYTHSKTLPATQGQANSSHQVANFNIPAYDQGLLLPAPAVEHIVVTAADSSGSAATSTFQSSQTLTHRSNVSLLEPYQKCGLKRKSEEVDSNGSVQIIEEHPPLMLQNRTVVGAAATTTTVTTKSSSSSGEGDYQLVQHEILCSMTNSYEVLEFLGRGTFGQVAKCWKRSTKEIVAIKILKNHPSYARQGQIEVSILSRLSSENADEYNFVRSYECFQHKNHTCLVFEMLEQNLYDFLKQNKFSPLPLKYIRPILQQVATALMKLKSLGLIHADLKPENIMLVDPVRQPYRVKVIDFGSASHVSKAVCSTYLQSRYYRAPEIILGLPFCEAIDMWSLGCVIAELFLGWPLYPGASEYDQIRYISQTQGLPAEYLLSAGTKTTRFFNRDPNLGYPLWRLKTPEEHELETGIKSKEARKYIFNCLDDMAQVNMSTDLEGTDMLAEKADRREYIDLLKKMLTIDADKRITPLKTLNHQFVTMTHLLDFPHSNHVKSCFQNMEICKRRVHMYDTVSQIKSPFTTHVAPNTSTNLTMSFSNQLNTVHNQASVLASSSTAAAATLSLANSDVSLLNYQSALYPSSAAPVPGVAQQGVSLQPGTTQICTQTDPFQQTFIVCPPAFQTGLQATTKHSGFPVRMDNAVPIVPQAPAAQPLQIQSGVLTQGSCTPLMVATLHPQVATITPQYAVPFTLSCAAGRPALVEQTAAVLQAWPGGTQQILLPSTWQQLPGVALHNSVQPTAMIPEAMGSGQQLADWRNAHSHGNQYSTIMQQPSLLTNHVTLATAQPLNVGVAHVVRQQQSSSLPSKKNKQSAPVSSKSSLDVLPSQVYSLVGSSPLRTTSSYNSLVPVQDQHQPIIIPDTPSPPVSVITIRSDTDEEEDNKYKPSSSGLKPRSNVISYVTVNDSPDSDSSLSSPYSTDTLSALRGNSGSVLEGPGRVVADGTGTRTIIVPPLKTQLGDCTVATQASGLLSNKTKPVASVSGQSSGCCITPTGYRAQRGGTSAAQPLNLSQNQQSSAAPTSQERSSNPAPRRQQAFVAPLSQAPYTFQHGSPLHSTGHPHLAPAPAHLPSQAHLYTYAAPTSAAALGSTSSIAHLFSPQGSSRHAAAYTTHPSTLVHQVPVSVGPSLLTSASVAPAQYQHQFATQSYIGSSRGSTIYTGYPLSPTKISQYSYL
A further assay concerns the target MAP2K3 (human) (UniProt P46734). The assay can be described thus: KINOMEscan competition binding. The note with it: compound 10.0 µM.
A further assay concerns the target MYO3B (human) (UniProt Q8WXR4). The experiment in a line: KINOMEscan competition binding. The note with it: compound 10.0 µM.
For assay [1], the target named is PIM1 (human) (UniProt P11309). The experiment in a line: KINOMEscan competition binding. The note with it: compound 10.0 µM.
PIM1 (human), sequence (P11309 whole entry, looked up): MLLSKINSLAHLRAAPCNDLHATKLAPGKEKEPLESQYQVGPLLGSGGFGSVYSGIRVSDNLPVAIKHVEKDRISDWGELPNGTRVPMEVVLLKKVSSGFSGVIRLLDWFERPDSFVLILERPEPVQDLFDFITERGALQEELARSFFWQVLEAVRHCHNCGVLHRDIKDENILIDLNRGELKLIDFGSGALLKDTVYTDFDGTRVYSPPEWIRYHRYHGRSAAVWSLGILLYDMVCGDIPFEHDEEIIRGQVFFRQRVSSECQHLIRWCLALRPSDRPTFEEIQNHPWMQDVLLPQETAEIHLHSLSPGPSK
Assay [2] addresses PIM2 (human) (UniProt Q9P1W9). The assay can be described thus: KINOMEscan competition binding. The note with it: compound 10.0 µM.
Another assay has as its target PIM3 (human) (UniProt Q86V86). The experiment in a line: KINOMEscan competition binding. The note with it: compound 10.0 µM.
For another assay, the target named is ACVR2B (human) (UniProt Q13705). The experiment in a line: KINOMEscan competition binding. The note with it: compound 10.0 µM.
The target in a further assay is ANKK1 (human) (UniProt Q8NFD2). The experiment in a line: KINOMEscan competition binding. The note with it: compound 10.0 µM.
The target in a further assay is CSNK1E (human) (UniProt P49674). The experiment in a line: KINOMEscan competition binding. Particulars: compound 10.0 µM.
For a further assay, the target named is CSNK2A2 (human) (UniProt P19784). The assay can be described thus: KINOMEscan competition binding. The note with it: compound 10.0 µM.
In another assay the target is DAPK1 (human) (UniProt P53355). The experiment in a line: KINOMEscan competition binding. The note with it: compound 10.0 µM.
Another assay addresses DAPK2 (human) (UniProt Q9UIK4). The experiment in a line: KINOMEscan competition binding. The note with it: compound 10.0 µM.
The target in another assay is DYRK1B (human) (UniProt Q9Y463). The assay can be described thus: KINOMEscan competition binding. Particulars: compound 10.0 µM.
For another assay, the target named is GSK3A (human) (UniProt P49840). The experiment in a line: KINOMEscan competition binding. The note with it: compound 10.0 µM.
For a further assay, the target named is GSK3B (human) (UniProt P49841). The assay can be described thus: KINOMEscan competition binding. The note with it: compound 10.0 µM.
Assay [3] concerns the target JAK1 JH2 pseudokinase (human) (UniProt P23458). The assay can be described thus: KINOMEscan competition binding. Particulars: compound 10.0 µM.
The next assay concerns the target MAP3K7 (human) (UniProt O43318). The assay can be described thus: KINOMEscan competition binding. Particulars: compound 10.0 µM.
The next assay addresses MAP4K2 (human) (UniProt Q12851). The experiment in a line: KINOMEscan competition binding. Particulars: compound 10.0 µM.
The target of a further assay is MAPKAPK5 (human) (UniProt Q8IW41). The assay can be described thus: KINOMEscan competition binding. Particulars: compound 10.0 µM.
The target in the next assay is PLK4 (human) (UniProt O00444). The assay can be described thus: KINOMEscan competition binding. The note with it: compound 10.0 µM.
For a further assay, the target named is RIPK4 (human) (UniProt P57078). The assay can be described thus: KINOMEscan competition binding. The note with it: compound 10.0 µM.
Another assay concerns the target RPS6KA1 KD2 (human) (UniProt Q15418). The experiment in a line: KINOMEscan competition binding. The note with it: compound 10.0 µM.
For a further assay, the target named is RPS6KA2 KD2 (human) (UniProt Q15349). The experiment in a line: KINOMEscan competition binding. The note with it: compound 10.0 µM.
RPS6KA2 KD2 (human), sequence (Q15349 whole entry, looked up): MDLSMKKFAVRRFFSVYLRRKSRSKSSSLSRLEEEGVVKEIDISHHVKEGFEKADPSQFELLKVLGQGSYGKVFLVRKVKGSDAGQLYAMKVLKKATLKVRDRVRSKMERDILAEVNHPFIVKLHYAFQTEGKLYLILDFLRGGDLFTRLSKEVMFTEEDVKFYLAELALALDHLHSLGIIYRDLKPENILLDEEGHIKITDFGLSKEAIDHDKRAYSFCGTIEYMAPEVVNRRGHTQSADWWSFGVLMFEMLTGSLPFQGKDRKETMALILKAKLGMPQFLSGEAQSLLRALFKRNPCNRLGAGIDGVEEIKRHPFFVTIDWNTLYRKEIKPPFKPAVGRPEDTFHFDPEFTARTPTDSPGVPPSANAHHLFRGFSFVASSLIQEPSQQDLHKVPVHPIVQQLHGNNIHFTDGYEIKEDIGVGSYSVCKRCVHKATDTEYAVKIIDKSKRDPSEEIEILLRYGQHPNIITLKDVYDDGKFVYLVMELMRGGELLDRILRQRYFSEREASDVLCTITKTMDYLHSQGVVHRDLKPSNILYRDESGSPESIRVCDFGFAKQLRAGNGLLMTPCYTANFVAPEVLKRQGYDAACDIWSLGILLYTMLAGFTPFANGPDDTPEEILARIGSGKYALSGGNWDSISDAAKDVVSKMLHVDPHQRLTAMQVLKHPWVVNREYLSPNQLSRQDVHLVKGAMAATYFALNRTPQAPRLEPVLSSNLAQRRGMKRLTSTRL
For another assay, the target named is RPS6KA6 KD2 (human) (UniProt Q9UK32). The assay can be described thus: KINOMEscan competition binding. Particulars: compound 10.0 µM.
Another assay addresses STK17A (human) (UniProt Q9UEE5). The experiment in a line: KINOMEscan competition binding. Particulars: compound 10.0 µM.
The next assay deals with STK17B (human) (UniProt O94768). The experiment in a line: KINOMEscan competition binding. Particulars: compound 10.0 µM.
The target of another assay is STK24 (human) (UniProt Q9Y6E0). The assay can be described thus: KINOMEscan competition binding. Particulars: compound 10.0 µM.
A further assay concerns the target TGFBR2 (human) (UniProt P37173). The assay can be described thus: KINOMEscan competition binding. Particulars: compound 10.0 µM.
The target of the next assay is TLK1 (human) (UniProt Q9UKI8). The experiment in a line: KINOMEscan competition binding. The note with it: compound 10.0 µM.
The target of assay [4] is TYK2 JH2 pseudokinase (human) (UniProt P29597). The experiment in a line: KINOMEscan competition binding. Particulars: compound 10.0 µM.
The target in assay [5] is PIM1 (human) (UniProt P11309). The experiment in a line: SelectScreen, TR FRET.
Assay [6] has as its target PIM2 (human) (UniProt Q9P1W9). The assay can be described thus: SelectScreen, TR FRET. In general terms: Time-resolved FRET reads energy transfer from a long-lived donor to a nearby acceptor.
In another assay the target is ALK (human) (UniProt Q9UM73). The assay can be described thus: KINOMEscan competition binding. The note with it: compound 10.0 µM.
The target in the next assay is CAMK2A (human) (UniProt Q9UQM7). The assay can be described thus: KINOMEscan competition binding. Particulars: compound 10.0 µM.
For the next assay, the target named is CAMKK1 (human) (UniProt Q8N5S9). The assay can be described thus: KINOMEscan competition binding. Particulars: compound 10.0 µM.
The next assay addresses CAMKK2 (human) (UniProt Q96RR4). The experiment in a line: KINOMEscan competition binding. Particulars: compound 10.0 µM.
The next assay deals with CLK2 (human) (UniProt P49760). The assay can be described thus: KINOMEscan competition binding. Particulars: compound 10.0 µM.
In another assay the target is DAPK3 (human) (UniProt O43293). The experiment in a line: KINOMEscan competition binding. Particulars: compound 10.0 µM.
In a further assay the target is DCLK1 (human) (UniProt O15075). The experiment in a line: KINOMEscan competition binding. Particulars: compound 10.0 µM.
The target of another assay is DCLK2 (human) (UniProt Q8N568). The assay can be described thus: KINOMEscan competition binding. The note with it: compound 10.0 µM.
In the next assay the target is GAK (human) (UniProt O14976). The assay can be described thus: KINOMEscan competition binding. The note with it: compound 10.0 µM.
A further assay deals with MAPK7 (human) (UniProt Q13164). The assay can be described thus: KINOMEscan competition binding. Particulars: compound 10.0 µM.
Another assay addresses MET (human) (UniProt P08581). The experiment in a line: KINOMEscan competition binding. Particulars: compound 10.0 µM.
For a further assay, the target named is MINK1 (human) (UniProt Q8N4C8). The experiment in a line: KINOMEscan competition binding. Particulars: compound 10.0 µM.
In a further assay the target is MYLK (human) (UniProt Q15746). The assay can be described thus: KINOMEscan competition binding. Particulars: compound 10.0 µM.
Another assay deals with PLK1 (human) (UniProt P53350). The experiment in a line: KINOMEscan competition binding. Particulars: compound 10.0 µM.
A further assay deals with PLK3 (human) (UniProt Q9H4B4). The experiment in a line: KINOMEscan competition binding. Particulars: compound 10.0 µM.
For a further assay, the target named is PRKD1 (human) (UniProt Q15139). The experiment in a line: KINOMEscan competition binding. Particulars: compound 10.0 µM.
The target in a further assay is PTK2 (human) (UniProt Q05397). The assay can be described thus: KINOMEscan competition binding. Particulars: compound 10.0 µM.
The next assay concerns the target SLK (human) (UniProt Q9H2G2). The experiment in a line: KINOMEscan competition binding. Particulars: compound 10.0 µM.
A further assay concerns the target STK33 (human) (UniProt Q9BYT3). The assay can be described thus: KINOMEscan competition binding. Particulars: compound 10.0 µM.
The target of the next assay is TNK1 (human) (UniProt Q13470). The assay can be described thus: KINOMEscan competition binding. Particulars: compound 10.0 µM.
Assay [7] deals with TTK (human) (UniProt P33981). The assay can be described thus: KINOMEscan competition binding.
TTK (human), sequence (P33981 whole entry, looked up): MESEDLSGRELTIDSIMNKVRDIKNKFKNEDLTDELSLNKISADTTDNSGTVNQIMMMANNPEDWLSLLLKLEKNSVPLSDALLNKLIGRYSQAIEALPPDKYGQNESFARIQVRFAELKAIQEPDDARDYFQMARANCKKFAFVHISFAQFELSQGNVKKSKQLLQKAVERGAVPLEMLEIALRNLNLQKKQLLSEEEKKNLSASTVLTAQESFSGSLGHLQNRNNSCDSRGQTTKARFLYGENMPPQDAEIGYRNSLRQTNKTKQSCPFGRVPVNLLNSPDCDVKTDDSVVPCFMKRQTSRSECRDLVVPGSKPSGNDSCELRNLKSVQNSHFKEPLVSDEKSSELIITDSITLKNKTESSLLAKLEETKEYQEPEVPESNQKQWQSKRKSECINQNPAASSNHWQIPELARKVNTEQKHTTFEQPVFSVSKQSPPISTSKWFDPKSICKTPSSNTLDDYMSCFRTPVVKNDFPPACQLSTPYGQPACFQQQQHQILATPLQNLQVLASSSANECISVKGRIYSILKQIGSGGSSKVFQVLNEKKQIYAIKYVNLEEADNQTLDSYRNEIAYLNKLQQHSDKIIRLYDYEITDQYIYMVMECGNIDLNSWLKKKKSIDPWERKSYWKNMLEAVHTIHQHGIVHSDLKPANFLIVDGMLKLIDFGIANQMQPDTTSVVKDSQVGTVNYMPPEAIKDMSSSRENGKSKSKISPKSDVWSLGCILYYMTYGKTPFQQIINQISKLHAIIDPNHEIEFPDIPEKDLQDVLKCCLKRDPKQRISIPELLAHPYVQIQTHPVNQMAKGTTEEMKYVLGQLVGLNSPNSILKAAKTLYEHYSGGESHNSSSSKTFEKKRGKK
The target of assay [8] is TTK (human) (UniProt P33981). The experiment in a line: SelectScreen, TR FRET.

PIM2 (human), sequence (Q9P1W9 whole entry, looked up): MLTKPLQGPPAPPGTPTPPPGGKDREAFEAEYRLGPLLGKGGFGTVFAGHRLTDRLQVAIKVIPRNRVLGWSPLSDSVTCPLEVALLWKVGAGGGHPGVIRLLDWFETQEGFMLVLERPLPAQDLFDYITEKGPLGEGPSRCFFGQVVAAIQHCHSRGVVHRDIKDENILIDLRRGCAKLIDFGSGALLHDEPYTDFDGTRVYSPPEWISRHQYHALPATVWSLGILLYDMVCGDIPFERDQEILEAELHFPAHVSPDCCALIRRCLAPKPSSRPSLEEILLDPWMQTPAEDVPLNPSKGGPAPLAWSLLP
CDK16 (human), sequence (Q00536 whole entry, looked up): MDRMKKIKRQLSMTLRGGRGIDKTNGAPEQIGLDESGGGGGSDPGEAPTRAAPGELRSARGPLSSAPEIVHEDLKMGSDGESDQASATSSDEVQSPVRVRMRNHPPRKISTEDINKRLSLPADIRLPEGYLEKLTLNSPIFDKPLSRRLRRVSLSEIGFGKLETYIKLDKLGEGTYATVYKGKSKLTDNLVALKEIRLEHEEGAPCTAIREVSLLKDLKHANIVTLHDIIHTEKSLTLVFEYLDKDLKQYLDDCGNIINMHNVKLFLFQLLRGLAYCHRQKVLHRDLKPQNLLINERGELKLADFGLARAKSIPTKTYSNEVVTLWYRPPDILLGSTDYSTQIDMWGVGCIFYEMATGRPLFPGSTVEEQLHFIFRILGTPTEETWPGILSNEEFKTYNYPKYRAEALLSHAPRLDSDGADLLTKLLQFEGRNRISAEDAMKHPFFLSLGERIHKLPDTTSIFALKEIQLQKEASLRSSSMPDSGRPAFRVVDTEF
MAP2K3 (human), sequence (P46734 whole entry, looked up): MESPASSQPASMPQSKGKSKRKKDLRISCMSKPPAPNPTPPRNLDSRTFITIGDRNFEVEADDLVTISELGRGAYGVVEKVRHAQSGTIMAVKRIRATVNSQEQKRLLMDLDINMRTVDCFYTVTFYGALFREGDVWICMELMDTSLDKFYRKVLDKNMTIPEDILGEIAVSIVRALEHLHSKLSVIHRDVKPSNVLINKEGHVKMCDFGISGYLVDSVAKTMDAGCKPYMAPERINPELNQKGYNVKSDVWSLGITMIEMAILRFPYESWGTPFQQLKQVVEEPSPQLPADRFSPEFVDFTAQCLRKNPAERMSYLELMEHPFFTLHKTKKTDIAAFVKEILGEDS
DAPK2 (human), sequence (Q9UIK4 whole entry, looked up): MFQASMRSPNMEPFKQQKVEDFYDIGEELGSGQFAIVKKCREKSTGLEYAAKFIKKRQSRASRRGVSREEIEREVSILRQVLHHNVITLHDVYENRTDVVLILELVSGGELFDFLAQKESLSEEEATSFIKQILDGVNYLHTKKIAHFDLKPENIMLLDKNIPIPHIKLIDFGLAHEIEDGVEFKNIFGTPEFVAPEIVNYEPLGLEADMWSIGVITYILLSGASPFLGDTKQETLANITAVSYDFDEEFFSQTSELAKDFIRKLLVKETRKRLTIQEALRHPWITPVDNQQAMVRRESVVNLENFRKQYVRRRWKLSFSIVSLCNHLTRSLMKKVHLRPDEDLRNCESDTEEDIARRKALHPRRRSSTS

As for `N=C1NC(=O)/C(=C/c2cccc(-c3ccc(S(N)(=O)=O)cc3)c2)S1`, the kinase still bound, per cent of control amounted to 32% on CDK16 (human); 25% at HIPK1 (human); 24% at MAP2K3 (human); 2.9% on MYO3B (human); 16% on PIM1 (human) [1]; 6.2% on PIM2 (human) [2]. This compound also gave a kinase still bound, per cent of control on PIM3 (human) of 13%.
As to `N=C1NC(=O)/C(=C/c2ccc(-c3ccc4c(C(=O)Nc5ccc(N6CCNCC6)cc5)cccc4c3)o2)S1`, the kinase still bound, per cent of control came out at 33% on ACVR2B (human); 25% on ANKK1 (human); 24% at CDK16 (human); 15% at CSNK1E (human); 33% on CSNK2A2 (human); 12% at DAPK1 (human). Further, the kinase still bound, per cent of control on DAPK2 (human) stood at 24%; at DYRK1B (human) it was 10%; at GSK3A (human) it was 18%; at GSK3B (human) it was 34%; at HIPK1 (human), 0.25%; in [3], 32%. Also, the kinase still bound, per cent of control on MAP2K3 (human) turned out to be 4.6%; on MAP3K7 (human), 2.6%; on MAP4K2 (human) it was 26%; on MAPKAPK5 (human) it was 12%; at PIM1 (human) [1], 6.4%; at PIM2 (human) [2], 0.65%. The kinase still bound, per cent of control on PIM3 (human) worked out at 8.2%; on PLK4 (human), 3.8%; on RIPK4 (human) it was 1.3%; on RPS6KA1 KD2 (human), 17%; at RPS6KA2 KD2 (human), 26%; on RPS6KA6 KD2 (human), 22%. Moreover, the kinase still bound, per cent of control at STK17A (human) is 0.1%; on STK17B (human), 0.4%; on STK24 (human) it was 23%; at TGFBR2 (human) it was 5.7%; at TLK1 (human), 12%; in assay [4], 8.8%. In addition, the results for the IC50 on PIM1 (human) [5] and against PIM2 (human) [6] were 131 nM and 115 nM, respectively.
In the case of `COc1cc(C(=O)NC2CCN(C)CC2)ccc1Nc1ncc2c(n1)N(C1CCCC1)CC(C)C(=O)N2C` (configuration not stated), the kinase still bound, per cent of control on ALK (human) was determined as 20%; at CAMK2A (human) it was 20%; at CAMKK1 (human), 33%; on CAMKK2 (human) it was 7.6%; at CLK2 (human), 15%; at DAPK1 (human) it was 7.2%. Besides, the kinase still bound, per cent of control on DAPK2 (human) was 21%; at DAPK3 (human) it was 8.2%; on DCLK1 (human), 3.4%; at DCLK2 (human), 1.8%; at GAK (human), 3.2%; at MAPK7 (human) it was 9.6%. Moreover, the kinase still bound, per cent of control on MET (human) amounted to 20%; on MINK1 (human) it was 33%; on MYLK (human), 0.45%; on PLK1 (human), 22%; at PLK3 (human), 2.8%; on PLK4 (human), 16%. For the same compound, the kinase still bound, per cent of control on PRKD1 (human) was found to be 34%; at PTK2 (human), 17%; at RPS6KA2 KD2 (human), 34%; on RPS6KA6 KD2 (human), 32%; on SLK (human) it was 2%; on STK33 (human), 7%. Also, the kinase still bound, per cent of control amounted to 24% on TNK1 (human) and 9.4% at TTK (human) [7] (compound 10.0 µM). The Kd on TTK (human) [7] is 3920 nM. Further, at TTK (human) [8], the IC50 is above 10000 nM.

The record behind these values is the kinase profiling compilation of Christmann-Franck et al. (2016).
